In patent publication US20180037568A1, “MODULATORS OF METHYL MODIFYING ENZYMES, COMPOSITIONS AND USES THEREOF” (Constellation Pharmaceuticals, Inc., priority 2015, published 2018):
Like-named read-outs stand apart in the source and are kept apart here.

Assays:
PRC2 containing wt EZH2 = molecular target: T1, PRC2 containing wt EZH2 (Homo sapiens, UniProt Q15910); assay: EZH2 pep BSA Brij 4.0 LowE (IC50): 3H-SAM incorporation into biotinylated H3 peptide; format: biochemical; conditions: read-out: EZH2 pep BSA Brij 4.0 LowE (IC50); 20 pM PRC2 wt EZH2, 0.9 μM 3H-SAM, biotinylated H3 peptide substrate, 2 μM H3K27me3 activating peptide
T1 construct: made in house
T1 sequence (Q15910 whole entry): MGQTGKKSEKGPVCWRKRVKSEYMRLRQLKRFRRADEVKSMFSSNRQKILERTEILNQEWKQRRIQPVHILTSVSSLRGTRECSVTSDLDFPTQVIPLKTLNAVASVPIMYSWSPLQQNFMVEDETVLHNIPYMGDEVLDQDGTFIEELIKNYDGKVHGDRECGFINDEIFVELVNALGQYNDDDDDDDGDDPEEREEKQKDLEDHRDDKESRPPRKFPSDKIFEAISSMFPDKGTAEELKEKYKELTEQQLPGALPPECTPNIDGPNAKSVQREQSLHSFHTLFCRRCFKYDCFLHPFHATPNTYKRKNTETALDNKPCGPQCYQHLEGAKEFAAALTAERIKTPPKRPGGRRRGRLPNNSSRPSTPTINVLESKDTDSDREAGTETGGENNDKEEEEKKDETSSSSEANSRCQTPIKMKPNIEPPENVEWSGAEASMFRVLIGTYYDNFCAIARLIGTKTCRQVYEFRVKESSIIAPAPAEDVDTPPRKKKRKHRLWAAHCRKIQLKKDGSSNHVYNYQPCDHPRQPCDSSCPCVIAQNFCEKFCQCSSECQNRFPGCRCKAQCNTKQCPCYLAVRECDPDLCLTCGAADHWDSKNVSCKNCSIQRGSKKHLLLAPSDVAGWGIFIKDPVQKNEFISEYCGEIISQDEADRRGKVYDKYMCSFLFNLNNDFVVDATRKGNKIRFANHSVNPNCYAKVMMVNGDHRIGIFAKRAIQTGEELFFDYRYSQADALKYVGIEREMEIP
T1 sequence (O75530 whole entry partner): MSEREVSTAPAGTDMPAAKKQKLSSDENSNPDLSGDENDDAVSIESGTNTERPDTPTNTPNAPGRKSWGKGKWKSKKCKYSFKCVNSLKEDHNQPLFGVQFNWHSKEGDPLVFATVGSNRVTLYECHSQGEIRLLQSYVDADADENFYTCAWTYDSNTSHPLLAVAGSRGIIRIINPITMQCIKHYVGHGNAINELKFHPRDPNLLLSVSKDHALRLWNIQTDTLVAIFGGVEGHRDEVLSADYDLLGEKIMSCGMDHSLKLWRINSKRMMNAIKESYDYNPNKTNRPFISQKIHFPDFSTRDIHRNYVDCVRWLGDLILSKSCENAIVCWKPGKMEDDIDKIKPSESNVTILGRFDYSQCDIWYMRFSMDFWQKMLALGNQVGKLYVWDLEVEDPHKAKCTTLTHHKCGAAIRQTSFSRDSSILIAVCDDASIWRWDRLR
T1 sequence (Q15022 whole entry partner): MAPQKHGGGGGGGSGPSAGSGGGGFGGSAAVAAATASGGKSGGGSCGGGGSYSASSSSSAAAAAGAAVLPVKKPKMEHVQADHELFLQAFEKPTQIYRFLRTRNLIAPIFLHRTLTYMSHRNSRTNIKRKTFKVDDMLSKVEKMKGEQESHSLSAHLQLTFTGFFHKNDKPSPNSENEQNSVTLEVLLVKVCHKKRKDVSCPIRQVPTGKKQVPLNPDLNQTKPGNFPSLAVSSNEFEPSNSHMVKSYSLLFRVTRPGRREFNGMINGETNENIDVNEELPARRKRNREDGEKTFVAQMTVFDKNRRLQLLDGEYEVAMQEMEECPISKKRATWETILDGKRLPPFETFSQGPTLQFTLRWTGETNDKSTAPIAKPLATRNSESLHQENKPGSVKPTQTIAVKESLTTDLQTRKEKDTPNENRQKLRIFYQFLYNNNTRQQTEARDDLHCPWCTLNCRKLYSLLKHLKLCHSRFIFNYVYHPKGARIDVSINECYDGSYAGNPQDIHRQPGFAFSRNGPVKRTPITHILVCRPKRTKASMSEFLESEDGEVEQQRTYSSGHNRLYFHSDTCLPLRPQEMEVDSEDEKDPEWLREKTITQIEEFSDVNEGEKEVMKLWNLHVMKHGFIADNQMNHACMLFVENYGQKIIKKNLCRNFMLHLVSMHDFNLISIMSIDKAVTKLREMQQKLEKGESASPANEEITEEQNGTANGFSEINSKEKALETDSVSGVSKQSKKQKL
T1 sequence (Q09028 whole entry partner): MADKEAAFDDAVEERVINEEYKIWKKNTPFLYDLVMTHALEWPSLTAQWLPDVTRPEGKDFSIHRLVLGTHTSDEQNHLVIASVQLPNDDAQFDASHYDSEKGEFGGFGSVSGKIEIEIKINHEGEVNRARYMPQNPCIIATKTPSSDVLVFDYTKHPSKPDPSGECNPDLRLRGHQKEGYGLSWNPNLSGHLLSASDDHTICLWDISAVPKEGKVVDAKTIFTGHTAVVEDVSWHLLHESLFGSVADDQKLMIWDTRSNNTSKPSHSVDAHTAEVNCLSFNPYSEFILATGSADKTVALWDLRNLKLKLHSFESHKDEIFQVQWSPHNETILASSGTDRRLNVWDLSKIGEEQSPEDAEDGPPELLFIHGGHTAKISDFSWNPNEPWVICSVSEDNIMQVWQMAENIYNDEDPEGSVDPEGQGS
T1 sequence (Q6ZN18 whole entry partner): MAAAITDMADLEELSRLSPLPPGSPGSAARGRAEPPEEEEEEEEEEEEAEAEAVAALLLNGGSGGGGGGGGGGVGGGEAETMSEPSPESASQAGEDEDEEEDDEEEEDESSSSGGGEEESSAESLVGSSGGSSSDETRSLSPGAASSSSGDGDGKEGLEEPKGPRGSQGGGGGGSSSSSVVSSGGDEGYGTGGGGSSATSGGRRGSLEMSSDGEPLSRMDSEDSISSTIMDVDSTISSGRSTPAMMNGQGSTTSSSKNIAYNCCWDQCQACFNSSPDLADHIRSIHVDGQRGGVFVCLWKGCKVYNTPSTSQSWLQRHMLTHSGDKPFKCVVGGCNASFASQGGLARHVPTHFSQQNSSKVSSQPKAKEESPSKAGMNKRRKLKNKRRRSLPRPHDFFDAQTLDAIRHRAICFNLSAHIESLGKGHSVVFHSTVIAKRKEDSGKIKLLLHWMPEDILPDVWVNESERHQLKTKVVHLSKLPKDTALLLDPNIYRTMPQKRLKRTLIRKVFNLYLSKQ
In short: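 PRC2 (wt EZH2, 20 pM) pre-incubated 120 min with compound, 0.9 μM 3H-SAM and 2 μM H3K27me3 activating peptide in pH 8.5 Tris/DTT/Brij-35/0.1% BSA, 0.8% DMSO. Biotinylated H3K27me1 peptide added (2 μM stock), 5 h at room temperature, EDTA/SAH quench, streptavidin Flashplate capture. IC50 from four-parameter fit versus full-activity and no-enzyme controls.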

H3K27me3 mark = assay: H3K27me3 Alpha Hela Assay (AlphaLISA); format: cell-based; conditions: Hela cells, 72 hrs; read-out: EZH2 Cell H3K27me3 Alpha HeLa (EC50 K27me3)
In short: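 HeLa cells at 1,000/well were treated with ten 3-fold compound doses for 72 h at 37 °C. After lysis and histone extraction, H3K27me3 was detected by AlphaLISA with anti-K27me3 acceptor beads, biotinylated anti-H3 (C-ter) antibody (3 nM final) and streptavidin donor beads (20 μg/mL final). Signals were normalized to DMSO and curve-fitted for EC50.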

[1] = In vitro metabolism, mouse liver microsomes; format: in vitro ADME; conditions: 10 μM compound, 0.7 mg protein/mL, read-out: intrinsic clearance
Experimental: (§1) The in vitro metabolism of compound 21 was evaluated by disappearance of compound in mouse, rat, dog and human liver microsomes at 10 μM compound concentration.
(§2) Data is expressed in μL/min/mg protein.

[2] = In vitro metabolism, rat liver microsomes; format: in vitro ADME; conditions: 10 μM compound, 0.7 mg protein/mL, read-out: intrinsic clearance
Experimental: as §1, §2

[3] = In vitro metabolism, dog liver microsomes; format: in vitro ADME; conditions: 10 μM compound, 0.7 mg protein/mL, read-out: intrinsic clearance
Experimental: as §1, §2

[4] = In vitro metabolism, human liver microsomes; format: in vitro ADME; conditions: 10 μM compound, 0.7 mg protein/mL, read-out: intrinsic clearance
Experimental: as §1, §2

[5] = Plasma-tissue distribution and glucuronide formation in BALB/C mice; format: in vivo; conditions: mouse, male BALB/C mice, oral gavage 100 mg/kg, 1 hour after dosing
Experimental: 1 h after dosing a group of mice (3 mice/group) via oral gavage at 100 mg/kg of compound 21, blood is collected from the submandibular or saphenous vein (˜30 μL) and tissue is collected from the biceps femoris (both sides). After tissue preparation and homogenization, plasma and tissue samples are assayed for parent drug using LC/MS/MS methodologies with internal standard. The glucuronide metabolites (parent mass +176) are also monitored via LC/MS/MS and compared to the internal standard for quantitation.

[6] = Mean plasma and tumor concentration, 7-day study in SCID mice; format: in vivo; conditions: mouse, po, female SCID mice

For COc1cc(C)[nH]c(=O)c1CNC(=O)c1c(C)n(C(C)C2CCN(C)C(C(F)(F)F)C2)c2ccccc12 (single isomer, unassigned) [Compound 21, N-((4-methoxy-6-methyl-2-oxo-1,2-dihydropyridin-3-yl)methyl)-2-methyl-1-(1-(1-methyl-2-(trifluoromethyl)piperidin-4-yl)ethyl)-1H-indole-3-carboxamide], which IC50 (PRC2 containing wt EZH2) is on record?
Its IC50 is under 100 nM.

What about the EC50 (H3K27me3 mark) of the same compound?
The EC50 was under 400 nM.

And the microsomal CLint at 10 μM [1]?
Its microsomal CLint at 10 μM is 55 µL/min/mg.

And the microsomal CLint at 10 μM [2]?
Its microsomal CLint at 10 μM is 35 µL/min/mg.

And the microsomal CLint at 10 μM [3]?
Its microsomal CLint at 10 μM is 35 µL/min/mg.

And the microsomal CLint at 10 μM [4]?
Its microsomal CLint at 10 μM is 39 µL/min/mg.

And the concentration at 1 h ([5]; muscle (biceps femoris), biceps femoris, read-out: Conc. in Muscle)?
The concentration at 1 h was 7240 ng/g.

What about the Kp at 1 h ([5]; muscle/plasma, read-out: Ratio Muscle/Plasma) of the same compound?
Its Kp at 1 h is 0.86.

What about the concentration at 1 h ([5]; plasma, read-out: Conc. in Plasma) of the same compound?
Its concentration at 1 h is 8370 ng/mL.

And the concentration at 7 day ([6]; plasma, 100 mg/kg P.O. BID, read-out: Mean Plasma Conc)?
Its concentration at 7 day is 280 ng/mL.

What about the concentration at 7 day ([6]; plasma, 200 mg/kg P.O. BID, read-out: Mean Plasma Conc) of the same compound?
Its concentration at 7 day is 1600 ng/mL.

And the concentration at 7 day ([6]; tumor, 100 mg/kg P.O. BID, read-out: Mean Tumor Conc)?
Its concentration at 7 day is 451 ng/g.

And the concentration at 7 day ([6]; tumor, 200 mg/kg P.O. BID, read-out: Mean Tumor Conc)?
The concentration at 7 day was 693 ng/g.
